These results are taken from patent US20040067531A1, “Methods of modulating protein tyrosine kinase function with substituted indolinone compounds” (SUGEN, INC., priority 1997, published 2004).

Like-named read-outs stand apart in the source and are kept apart here.

The subject of one assay is HUV-EC-C cells; VEGF. The experiment in a line: HUVEC-VEGF 3H-thymidine incorporation assay. Format: cell-based, human. How it is done: The following protocol is used to measure a compound's activity against VEGF and aFGF, all of which are expressed by HUVEC cells.
1. […] After cells have detached from the flask, add an equal volume of assay medium and transfer to a 50 mL sterile centrifuge tube (Fisher Scientific; catalogue no. 05-539-6).
2. Wash the cells with about 35 mL assay medium in the 50 mL sterile centrifuge tube by adding the assay medium, centrifuge for 10 minutes at approximately 200×g, aspirate the supernatant, and resuspend with 35 mL D-PBS. Repeat the wash two more times with D-PBS, resuspend the cells in about 1 mL assay medium/15 cm^2 of tissue culture flask. Assay medium consists of F12K medium (Gibco BRL; catalogue no. 21127-014)+0.5% heat-inactivated fetal bovine serum. Count the cells with a Coulter Counter® (Coulter Electronics, Inc.) and add assay medium to the cells to obtain a concentration of 0.8-1.0×10^5 cells/mL.
3. Add cells to 96-well flat-bottom plates at 100 μL/well or 0.8-1.0×10^4 cells/well; incubate ˜24h at 37° C., 5% CO^2.
1. Make up two-fold drug titrations in separate 96-well plates, generally 50 μM on down to 0 μM. Use the same assay medium as mentioned in day 0, step 2 above. Titrations are made by adding […] of drug at 200 μM (4× the final well concentration) to the top well of a particular plate column. Since the stock drug concentration is usually 20 mM in DMSO, the 200 μM drug concentration contains 2% DMSO.
Therefore, diluent made up to 2% DMSO in assay medium (F12K+0.5% fetal bovine serum) is used as diluent for the drug titrations in order to dilute the drug but keep the DMSO concentration constant. Add this diluent to the remaining wells in the column at 60 μL/well. Take 60 μL from the 120 μL of 200 μM drug dilution in the top well of the column and mix with the 60 μL in the second well of the column. Take 60 μL from this well and mix with the 60 μL in the third well of the column, and so on until two-fold titrations are completed. When the next-to-the-last well is mixed, take 60 μL of the 120 μL in this well and discard it. Leave the last well with 60 μL of DMSO/media diluent as a non-drug-containing control. Make 9 columns of titrated drug, enough for triplicate wells each for 1) VEGF (obtained from Pepro Tech Inc., catalogue no. 100-200, 2) endothelial cell growth factor (ECGF) (also known as acidic fibroblast growth factor, or aFGF) (obtained from Boehringer Mannheim Biochemica, catalogue no. 1439 600); or, 3) human PDGF B/B (1276-956, Boehringer Mannheim, Germany) and assay media control. ECGF comes as a preparation with sodium heparin.
2. Transfer 50 μL/well of the drug dilutions to the 96-well assay plates containing the 0.8-1.0×10^4 cells/100 μL/well of the HUV-EC-C cells from day 0. and incubate ˜2 h at 37° C., 5% CO2.
3. […] As with the drugs, the growth factor concentrations are 4× the desired final concentration. Use the assay media from day 0 step 2 to make the concentrations of growth factors. Incubate approximately 24 hours at 37° C., 5% CO2. Each well will have 50 μL drug dilution, 50 μL growth factor or media, and 100 μL cells, =200 μL/well total. Thus the 4× concentrations of drugs and growth factors become 1× once everything has been added to the wells.
1. Add ^3H-thymidine (Amersham; catalogue no. TRK-686) at 1 μCi/well (10 μL/well Of 100 μCi/mi solution made up in RPMI media +10% heat-inactivated fetal bovine serum) and incubate μ24 h at 37° C., 5% CO2. RPMI was obtained from Gibco BRL, catalogue no. 11875-051.
1. Freeze plates overnight at […]
1. Thaw plates and harvest with a 96-well plate harvester (Tomtec Harvester 96®) onto filter mats (Wallac; catalogue no. 1205-401); read counts on a Wallac Betaplate™ liquid scintillation counter.
The IC50 values were measured for several of the compounds of the invention.

Assay [1] relates to HUV-EC-C cells; aFGF (ECGF). The experiment in a line: HUVEC-aFGF 3H-thymidine incorporation assay. The assay is classed as cell-based, human. (Uptake of a labelled nucleoside into DNA is a usual measure of proliferation.)
Procedure: Use the same assay medium as mentioned in day 0, step 2 above. Titrations are made by adding 90 μL/well of drug at 200 μM (4× the final well concentration) to the top well of a particular plate column. Since the stock drug concentration is usually 20 mM in DMSO, the 200 μM drug concentration contains 2% DMSO.
Therefore, diluent made up to 2% DMSO in assay medium (F12K+0.5% fetal bovine serum) is used as diluent for the drug titrations in order to dilute the drug but keep the DMSO concentration constant. Add this diluent to the remaining wells in the column at 60 μL/well. Take 60 μL from the 120 μL of 200 μM drug dilution in the top well of the column and mix with the 60 μL in the second well of the column. Take 60 μL from this well and mix with the 60 μL in the third well of the column, and so on until two-fold titrations are completed. When the next-to-the-last well is mixed, take 60 μL of the 120 μL in this well and discard it. Leave the last well with 60 μL of DMSO/media diluent as a non-drug-containing control. Make 9 columns of titrated drug, enough for triplicate wells each for 1) VEGF (obtained from Pepro Tech Inc., catalogue no. […] ECGF comes as a preparation with sodium heparin.
In triplicate, add 50 μL/well of 80 μg/mL VEGF, 20 ng/mL ECGF, or media control to each drug condition. As with the drugs, the growth factor concentrations are 4× the desired final concentration. Use the assay media from day 0 step 2 to make the concentrations of growth factors.
Freeze plates overnight at 20° C.
The subject of assay [2] is FGF-induced BrdU incorporation. In words: FGF-induced BrdU incorporation assay. Format: cell-based. The following applies: read-out: FGF-Induced BrdU Incorp. IC50. On the procedure: (§1) PDGF-, FGF-, and EGF-Induced BRDU Incorporation Assay
(§2) 1. Cells were seeded at 8000 cells/well in DMEM, 10% CS, 2 mM Gln in a 96 well plate. Cells were incubated overnight at 37° C. in 5% CO2.
(§3) 2. After 24 hours, the cells were washed with PBS, and then were serum starved in serum free medium (0% CS DMEM with 0.1% BSA) for 24 hours.
(§4) 3. On day 3, ligand (PDGF=3.8 nM, prepared in DMEM with 0.1% BSA) and test compounds were added to the cells simultaneously. The negative control wells received serum free DMEM with 0.1% BSA only; the positive control cells received the ligand (PDGF) but no test compound. Test compounds were prepared in serum free DMEM with ligand in a 96 well plate, and serially diluted for 7 test concentrations.
(§5) 4. After 20 hours of ligand activation, diluted BrdU labeling reagent (1:100 in DMEM, 0.1% BSA) was added and the cells were incubated with BrdU (final concentration=10 μM) for 1.5 hours.
(§6) 5. After incubation with labeling reagent, the medium was removed by decanting and tapping the inverted plate on a paper towel. FixDenat solution was added (50 μL/well) and the plates were incubated at room temperature for 45 minutes on a plate shaker.
(§7) 6. The FixDenat solution was thoroughly removed by decanting and tapping the inverted plate on a paper towel. Milk was added (5% dehydrated milk in PBS, 200 μL/well) as a blocking solution and the plate was incubated for 30 minutes at room temperature on a plate shaker.
(§8) 7. The blocking solution was removed by decanting and the wells were washed once with PBS. Anti-BrdU-POD solution (1:100 dilution in PBS, 1% BSA) was added (100 μL/well), and the plate was incubated for 90 minutes at room temperature on a plate shaker.
(§9) 8. The antibody conjugate was thoroughly removed by decanting and rinsing the wells 5 times with PBS, and the space was dried by inverting and tapping on a paper towel.
(§10) 9. TMB substrate solution was added (100 μL/well) and incubated for 20 minutes at room temperature on a plate shaker until color development was sufficient for photometric detection.
(§11) 10. The absorbance of the samples were measured at 410 nm (in “dual wavelength” mode with a filter reading at 490 nm, as a reference wavelength) on a Dynatech ELISA plate reader.
(§12) The IC50 values were measured for several of the compounds of the invention. These values are depicted in Table 10.

Assay [3] has as its system EGF-induced BrdU incorporation. The experiment in a line: EGF-induced BrdU incorporation assay. The assay is classed as cell-based. To be noted: read-out: EGF-Induced BrdU Incorp. IC50. How it is done:
as §1, §2, §3, §4, §5, §6, §7, §8, §9, §10, §11, §12

As usually defined, the IC50 is the point on the concentration scale where inhibition reaches its midpoint. With `Cc1c[nH]c(C=C2C(=O)Nc3cccc(C)c32)c1CCC(=O)O` [IN-029, 3-[2-(4-Methyl-2-oxo-1,2-dihydro-indol-3-ylidenemethyl)-4-methyl-1H-pyrrol-3-yl]-propionic acid], the half-inhibitory concentration (IC50) in the assay on HUV-EC-C cells; VEGF (Homo sapiens) was less than 70 nM; in assay [1] (Homo sapiens), 350 nM; in assay [2], greater than 50000 nM; in assay [3] (EGF-induced), 43500 nM.

On to `CN(C)CCCc1c(C=C2C(=O)Nc3ccccc32)[nH]c2c1CCCC2` [IN-009, 3-[3-(3-Dimethylamino-propyl)-4,5,6,7-tetrahydro-1H-indol-2-ylmethylene]-1,3-dihydro-indol-2-one], for which the IC50 in the assay with HUV-EC-C cells; VEGF (Homo sapiens) was 290 nM; in assay [1] (Homo sapiens), 1700 nM; in assay [2] it was greater than 50000 nM; in assay [3], greater than 50000 nM.

Consider `O=C(O)CCc1c(C=C2C(=O)Nc3ccc(Cl)cc32)[nH]c2c1CCCC2` [IN-002, 3-[2-(5-Chloro-2-oxo-1,2-dihydro-indol-3-ylidenemethyl)-4,5.6,7-tetrahydro-1H-indol-3-yl]-propionic acid], for which the IC50 in the assay with HUV-EC-C cells; VEGF came out at 0.04 nM; in assay [1], 250 nM; in assay [2] (FGF-induced), 23600 nM; in assay [3] (EGF-induced) it was 83500 nM.

Turning to `Cc1c[nH]c(C=C2C(=O)Nc3cc(Cl)ccc32)c1CCC(=O)O` [IN-030, 3-[2-(6-Chloro-2-oxo-1,2-dihydro-indol-3-ylidenemethyl)-4-methyl-1H-pyrrol-3-yl]-propionic acid], the IC50 is 16 nM in the assay on HUV-EC-C cells; VEGF (Homo sapiens), 260 nM in assay [1] (Homo sapiens), greater than 50000 nM in assay [2] and greater than 50000 nM in assay [3].
